# Test results reported in ChEMBL document CHEMBL4765228, “Indole-like Trk receptor antagonists” (Eur J Med Chem, 2016).
# Activity calls are given as the source filed them. The calls are words filed in the database; no cut-off is given here.
# What was measured:
# [1] = molecular target: High affinity nerve growth factor receptor (Rattus norvegicus) (UniProt P35739); assay: Inhibition of TrkA in rat PC12 cells assessed as reduction in ERK1/ERK2 phosphorylation at 0.01 to 1 uM after 5 mins in presence of NGF by Western blot analysis; format: cell-based; details: PC-12, dose 0.01-1 µM
# High affinity nerve growth factor receptor (Rattus norvegicus), sequence (P35739 whole entry): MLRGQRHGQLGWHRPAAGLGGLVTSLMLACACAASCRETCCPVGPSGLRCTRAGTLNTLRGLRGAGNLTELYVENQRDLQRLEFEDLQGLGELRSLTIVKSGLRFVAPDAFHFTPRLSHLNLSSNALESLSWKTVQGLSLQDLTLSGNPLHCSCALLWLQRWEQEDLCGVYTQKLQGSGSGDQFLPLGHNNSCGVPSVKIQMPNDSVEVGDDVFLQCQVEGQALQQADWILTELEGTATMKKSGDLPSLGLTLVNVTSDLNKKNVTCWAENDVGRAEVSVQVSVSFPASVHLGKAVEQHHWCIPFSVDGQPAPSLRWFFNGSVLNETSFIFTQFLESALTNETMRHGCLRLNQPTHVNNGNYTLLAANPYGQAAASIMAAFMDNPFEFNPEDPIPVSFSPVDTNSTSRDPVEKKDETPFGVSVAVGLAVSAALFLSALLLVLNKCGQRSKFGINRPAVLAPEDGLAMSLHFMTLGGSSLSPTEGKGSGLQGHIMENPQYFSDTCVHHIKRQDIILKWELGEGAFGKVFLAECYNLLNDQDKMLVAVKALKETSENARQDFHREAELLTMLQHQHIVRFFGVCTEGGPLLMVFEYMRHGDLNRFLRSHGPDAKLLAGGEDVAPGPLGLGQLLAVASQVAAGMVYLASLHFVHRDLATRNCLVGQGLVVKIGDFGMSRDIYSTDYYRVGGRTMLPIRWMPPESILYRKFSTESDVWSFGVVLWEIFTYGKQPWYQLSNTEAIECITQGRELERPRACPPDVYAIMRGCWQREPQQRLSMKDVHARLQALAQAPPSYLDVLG
# MG87 = assay: Cytotoxicity against mouse MG87 cells transfected with pFA2-Elk plasmid and pFR-luciferase plasmid assessed as cellular ATP content at 0.01 to 1 uM after 24 hrs by CellTiter-Glo luminescent analysis; format: functional, cell-based; details: dose 0.01-1 µM
# [2] = molecular target: BDNF/NT-3 growth factors receptor (Mus musculus) (UniProt P15209); assay: Inhibition of TrkB in mouse MG87 cells transfected with pFA2-Elk plasmid and pFR-luciferase plasmid assessed as reduction in ERK1/ERK2 phosphorylation at 0.01 to 1 uM after 5 mins in presence of BDNF by Western blot analysis; format: cell-based; details: dose 0.01-1 µM
# BDNF/NT-3 growth factors receptor (Mus musculus), sequence (P15209 whole entry): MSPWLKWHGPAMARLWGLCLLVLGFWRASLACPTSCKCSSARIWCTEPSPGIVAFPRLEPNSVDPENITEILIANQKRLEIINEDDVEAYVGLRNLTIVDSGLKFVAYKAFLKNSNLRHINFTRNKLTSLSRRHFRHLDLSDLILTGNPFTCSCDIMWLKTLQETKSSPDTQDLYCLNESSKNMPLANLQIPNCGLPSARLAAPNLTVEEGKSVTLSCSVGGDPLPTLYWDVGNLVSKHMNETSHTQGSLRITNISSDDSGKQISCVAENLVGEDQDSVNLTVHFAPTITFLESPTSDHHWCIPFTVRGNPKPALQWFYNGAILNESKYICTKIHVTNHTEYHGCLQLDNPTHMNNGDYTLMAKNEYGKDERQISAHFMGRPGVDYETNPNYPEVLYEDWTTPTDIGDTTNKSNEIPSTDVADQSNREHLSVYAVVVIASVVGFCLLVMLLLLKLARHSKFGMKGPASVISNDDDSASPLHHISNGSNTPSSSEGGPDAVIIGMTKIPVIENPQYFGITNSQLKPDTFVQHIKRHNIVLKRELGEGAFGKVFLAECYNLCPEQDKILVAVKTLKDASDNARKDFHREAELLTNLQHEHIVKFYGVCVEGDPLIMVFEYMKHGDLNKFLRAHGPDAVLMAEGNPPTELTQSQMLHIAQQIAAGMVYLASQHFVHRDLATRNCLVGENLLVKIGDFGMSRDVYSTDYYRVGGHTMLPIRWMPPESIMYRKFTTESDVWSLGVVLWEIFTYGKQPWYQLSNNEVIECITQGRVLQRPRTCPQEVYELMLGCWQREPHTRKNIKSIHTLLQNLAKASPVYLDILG
# [3] = molecular target: BDNF/NT-3 growth factors receptor (Mus musculus) (UniProt P15209); assay: Inhibition of TrkB in mouse MG87 cells transfected with pFA2-Elk plasmid and pFR-luciferase plasmid assessed as reduction in Akt phosphorylation at 0.01 to 1 uM after 5 mins in presence of BDNF by Western blot analysis; format: cell-based; details: dose 0.01-1 µM
# [4] = molecular target: High affinity nerve growth factor receptor (Rattus norvegicus) (UniProt P35739); assay: Inhibition of TrkA in rat PC-12 cells assessed as reduction in Akt phosphorylation at 0.01 to 1 uM after 5 mins in presence of NGF by Western blot analysis; format: cell-based; details: dose 0.01-1 µM
# [5] = molecular target: BDNF/NT-3 growth factors receptor (Mus musculus) (UniProt P15209); assay: Inhibition of TrkB phosphorylation in mouse MG87 cells transfected with pFA2-Elk plasmid and pFR-luciferase plasmid at 1 uM after 5 mins in presence of BDNF by Western blot analysis; format: cell-based
# [6] = Aqueous solubility of the compound […] incubated for 60 min by RP-HPLC-DAD analysis; format: physicochemical
# [7] = molecular target: T1, High affinity nerve growth factor receptor (Homo sapiens, UniProt P04629); assay: Inhibition of GAL4 fused TrkA (unknown origin) expressed in PC12 cells transfected with pFA2-Elk plasmid and pFR-luciferase plasmid measured for 18 hrs by luciferase reporter gene assay; format: cell-based, Rattus norvegicus, PC-12
# T1 sequence (P04629 whole entry, the tested form may be a part): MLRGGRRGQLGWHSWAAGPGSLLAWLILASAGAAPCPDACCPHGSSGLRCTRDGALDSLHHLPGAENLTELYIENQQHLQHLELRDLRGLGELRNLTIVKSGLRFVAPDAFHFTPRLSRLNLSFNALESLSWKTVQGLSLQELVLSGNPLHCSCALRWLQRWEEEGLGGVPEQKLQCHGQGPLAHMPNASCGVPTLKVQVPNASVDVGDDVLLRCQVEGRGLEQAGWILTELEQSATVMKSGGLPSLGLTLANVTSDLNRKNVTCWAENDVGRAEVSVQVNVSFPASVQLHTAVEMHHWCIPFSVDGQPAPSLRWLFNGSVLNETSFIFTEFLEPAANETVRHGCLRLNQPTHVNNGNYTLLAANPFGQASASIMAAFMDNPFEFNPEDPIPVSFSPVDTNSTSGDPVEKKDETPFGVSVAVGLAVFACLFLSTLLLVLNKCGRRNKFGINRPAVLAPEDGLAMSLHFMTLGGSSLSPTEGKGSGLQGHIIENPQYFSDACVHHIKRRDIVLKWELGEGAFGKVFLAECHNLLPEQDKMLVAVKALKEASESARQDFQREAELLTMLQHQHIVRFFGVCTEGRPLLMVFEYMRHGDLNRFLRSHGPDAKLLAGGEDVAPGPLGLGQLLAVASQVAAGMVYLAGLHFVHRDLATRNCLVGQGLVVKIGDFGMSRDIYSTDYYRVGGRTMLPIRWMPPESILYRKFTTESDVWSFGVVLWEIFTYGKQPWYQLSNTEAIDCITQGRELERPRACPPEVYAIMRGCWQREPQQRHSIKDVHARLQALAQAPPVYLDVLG
# [8] = molecular target: T2, BDNF/NT-3 growth factors receptor (Homo sapiens, UniProt Q16620); assay: Inhibition of TrkB (unknown origin)
# T2 sequence (Q16620 whole entry): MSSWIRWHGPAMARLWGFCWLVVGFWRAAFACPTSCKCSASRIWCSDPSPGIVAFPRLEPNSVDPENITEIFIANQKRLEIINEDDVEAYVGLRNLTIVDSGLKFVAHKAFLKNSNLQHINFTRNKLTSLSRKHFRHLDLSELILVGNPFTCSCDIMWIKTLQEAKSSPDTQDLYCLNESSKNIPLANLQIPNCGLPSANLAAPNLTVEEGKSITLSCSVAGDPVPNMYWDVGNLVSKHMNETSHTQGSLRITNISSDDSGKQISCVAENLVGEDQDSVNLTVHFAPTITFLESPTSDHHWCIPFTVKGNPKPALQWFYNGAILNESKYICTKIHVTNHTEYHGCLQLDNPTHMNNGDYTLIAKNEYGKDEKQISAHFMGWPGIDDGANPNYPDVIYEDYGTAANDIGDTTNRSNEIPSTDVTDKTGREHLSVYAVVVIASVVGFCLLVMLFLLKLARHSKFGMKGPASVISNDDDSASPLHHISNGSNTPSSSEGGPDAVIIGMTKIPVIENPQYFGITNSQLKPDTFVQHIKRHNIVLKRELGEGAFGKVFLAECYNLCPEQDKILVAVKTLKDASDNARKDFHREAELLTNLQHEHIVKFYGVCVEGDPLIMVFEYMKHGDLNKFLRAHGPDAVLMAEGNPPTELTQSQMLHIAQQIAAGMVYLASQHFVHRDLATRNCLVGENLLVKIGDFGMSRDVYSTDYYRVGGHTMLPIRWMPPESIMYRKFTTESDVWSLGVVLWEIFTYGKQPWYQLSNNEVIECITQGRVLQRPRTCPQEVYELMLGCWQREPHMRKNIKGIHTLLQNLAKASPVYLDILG
# [9] = molecular target: T1, High affinity nerve growth factor receptor; assay: Inhibition of TrkA (unknown origin)
# [10] = molecular target: T2, BDNF/NT-3 growth factors receptor; assay: Inhibition of GAL4 fused TrkB (unknown origin) expressed in MG87 cells transfected with pFA2-Elk plasmid and pFR-luciferase plasmid measured for 18 hrs by luciferase reporter gene assay; format: cell-based
# [11] = molecular target: Tyrosine-protein kinase SYK (Homo sapiens) (UniProt P43405); assay: Inhibition of human SYK (1 to 635 residues) assessed as residual activity at 0.1 uM relative to control
# Cortical neurone = assay: Cytotoxicity against Wistar rat cortical neuron assessed as neuron survival at 0.01 to 1 uM incubated for 24 hrs; format: cell-based; details: dose 0.01-1 µM
# [12] = molecular target: NT-3 growth factor receptor (Homo sapiens, UniProt Q16288); assay: Inhibition of TrkC (unknown origin)
# NT-3 growth factor receptor, sequence (Q16288 whole entry, the tested form may be a part): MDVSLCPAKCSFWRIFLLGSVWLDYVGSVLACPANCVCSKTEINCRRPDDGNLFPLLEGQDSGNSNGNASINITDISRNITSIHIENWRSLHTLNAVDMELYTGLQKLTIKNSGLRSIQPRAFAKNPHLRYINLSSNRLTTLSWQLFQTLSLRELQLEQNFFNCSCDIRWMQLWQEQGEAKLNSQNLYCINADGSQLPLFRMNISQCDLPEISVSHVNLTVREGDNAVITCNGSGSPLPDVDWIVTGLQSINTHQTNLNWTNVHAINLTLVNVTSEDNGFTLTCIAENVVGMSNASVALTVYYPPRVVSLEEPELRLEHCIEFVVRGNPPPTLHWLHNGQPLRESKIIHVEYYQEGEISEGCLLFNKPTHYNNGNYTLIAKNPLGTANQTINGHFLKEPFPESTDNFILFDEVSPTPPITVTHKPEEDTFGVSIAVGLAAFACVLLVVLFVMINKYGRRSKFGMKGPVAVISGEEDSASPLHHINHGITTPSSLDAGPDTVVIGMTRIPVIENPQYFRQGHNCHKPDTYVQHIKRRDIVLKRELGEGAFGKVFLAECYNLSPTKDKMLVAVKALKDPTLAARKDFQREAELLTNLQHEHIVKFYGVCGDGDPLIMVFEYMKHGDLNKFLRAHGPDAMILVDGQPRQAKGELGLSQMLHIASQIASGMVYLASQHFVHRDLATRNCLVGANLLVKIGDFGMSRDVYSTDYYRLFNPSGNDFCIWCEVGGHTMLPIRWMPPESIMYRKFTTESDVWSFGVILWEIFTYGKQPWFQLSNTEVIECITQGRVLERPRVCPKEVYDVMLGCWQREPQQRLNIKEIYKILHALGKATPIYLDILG
# [13] = molecular target: Tyrosine-protein kinase SYK (Homo sapiens) (UniProt P43405); assay: Inhibition of human SYK (1 to 635 residues) assessed as residual activity at 1 uM relative to control
SMILES,inhibition [1],Activity (MG87),inhibition [2],inhibition [3],inhibition [4],inhibition [5],solubility at 1 h [6] [µM],IC50 [7] [nM],IC50 [8] [nM],IC50 [9] [nM],IC50 [10] [nM],Activity [11] [%],Activity (Cortical neurone),IC50 [12] [nM],Activity [13] [%]
COc1ccc2c(c1)c(/C=C1\C(=O)Nc3ccc(S(N)(=O)=O)cc31)cn2C,Active,inactive,Active,Active,Active,Active,,,,,,,,,
COc1ccc2c(c1)c(/C=C1\C(=O)Nc3ccc(S(=O)(=O)N(C)C)cc31)cn2C,Active,inactive,Active,Active,Active,Active,7.8,46,15.2,10.1,142,102,Non-Toxic,11.7,91
CN(C)S(=O)(=O)c1ccc2c(c1)/C(=C/c1cn(C)c3ccc(O)cc13)C(=O)N2,,,,,,,,92.8,13.5,9.17,,107,,9.72,91
CNS(=O)(=O)c1ccc2c(c1)/C(=C/c1cn(C)c3ccc(OC)cc13)C(=O)N2,Active,inactive,Active,Active,Active,Active,,,,,,,,,
Cn1cc(/C=C2\C(=O)Nc3ccc(S(N)(=O)=O)cc32)c2ccccc21,,,,,,,,36.7,7.62,4.17,,69,,6.86,47
COc1ccc2[nH]cc(/C=C3\C(=O)Nc4ccc(S(N)(=O)=O)cc43)c2c1,,,,,,,,103,8.53,8.49,,86,,8.82,35
